Some test systems named below: CAKI-1 renal; COLO 205 colon; UACC-62 melanoma; SNB-19 CNS; K-562 leukemia; HT29 colon; SW-620 colon; UACC-257 melanoma; SF-295 CNS; EKVX NSCLC.
Common to all, as to test: growth of human tumour cells (NCI), 48 h

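Tested at 5 concentrations; 48 h exposure; 96-well plates; endpoints linearly interpolated, else capped at highest concentration. The concentration for 50% growth inhibition is given as GI50. TGI marks complete inhibition of growth.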

The record followed here is PubChem BioAssay (NCI).

In the case of `COc1cc(/C=N/O)nc(-c2ccccn2)c1`, the TGI in the test with CAKI-1 renal was 8.97 µM; with COLO 205 colon, over 100 µM; with UACC-62 melanoma, 2.7 µM; in the test on SNB-19 CNS, over 100 µM; in the test with K-562 leukemia it was over 100 µM; with HT29 colon, over 100 µM. The TGI in the test on SW-620 colon is over 100 µM; with UACC-257 melanoma it was 9.43 µM; in the test with SF-295 CNS it was over 35.5 µM; in the test on EKVX NSCLC it was over 100 µM. Also, the GI50 was 0.305 µM in the test with COLO 205 colon; 0.325 µM in the test with UACC-62 melanoma; 0.558 µM in the test on SNB-19 CNS; 0.454 µM in the test with HT29 colon; 0.415 µM with SW-620 colon; 0.679 µM in the test on UACC-257 melanoma. Also, the GI50 in the test with EKVX NSCLC is 0.342 µM.

Take `CC1CCC(C#N)(NOC2=NCCN2)CC1` (configuration not stated): the GI50 is 16.2 µM with CAKI-1 renal; 36 µM in the test with COLO 205 colon; 25.4 µM in the test on UACC-62 melanoma; over 100 µM with SNB-19 CNS; 29.8 µM in the test with K-562 leukemia; over 100 µM in the test with HT29 colon. The GI50 with SW-620 colon was 33.2 µM; in the test on UACC-257 melanoma, over 100 µM; with SF-295 CNS it was 23.6 µM; in the test with EKVX NSCLC it was 36.1 µM. Further, the TGI with CAKI-1 renal is 33.8 µM; in the test on COLO 205 colon, over 100 µM; with UACC-62 melanoma, over 100 µM; in the test with SNB-19 CNS it was over 100 µM; with K-562 leukemia, over 100 µM; with HT29 colon it was over 100 µM. In addition, the TGI is over 100 µM in the test on SW-620 colon, over 100 µM with UACC-257 melanoma, 93.4 µM in the test on SF-295 CNS and over 100 µM in the test with EKVX NSCLC.

On to `Cc1cccc2cc3ccc4ccccc4c3cc12`, for which the TGI in the test on CAKI-1 renal is over 100 µM; in the test with COLO 205 colon, 39 µM; in the test on UACC-62 melanoma, over 100 µM; with SNB-19 CNS, over 100 µM; in the test on K-562 leukemia it was over 100 µM; in the test on HT29 colon, 97.8 µM. Moreover, the TGI was over 100 µM with SW-620 colon, 53 µM in the test on UACC-257 melanoma, over 100 µM with SF-295 CNS and 78.3 µM in the test with EKVX NSCLC.

Turning to `CCc1c(-c2coc(CC/C(C)=C/c3ccccc3)n2)oc(OC)c(C)c1=O`, the TGI in the test on CAKI-1 renal was over 100 µM; in the test on COLO 205 colon it was over 47.8 µM; in the test with UACC-62 melanoma it was over 53 µM; in the test with SNB-19 CNS, over 86.3 µM; in the test on K-562 leukemia, over 100 µM; with HT29 colon it was over 31.6 µM. Also, the TGI in the test with SW-620 colon was over 44.7 µM; in the test with UACC-257 melanoma, over 100 µM; with SF-295 CNS it was over 100 µM; in the test with EKVX NSCLC, over 100 µM.

With `COc1ccc(Cn2cc3c(c2-c2ccccc2)CCc2cncnc2-3)cc1`, the GI50 was 3.55 µM in the test on CAKI-1 renal; 4.44 µM in the test with COLO 205 colon; 3.47 µM in the test on UACC-62 melanoma; 10.2 µM in the test on SNB-19 CNS; 2.75 µM in the test on K-562 leukemia; 3.9 µM with HT29 colon. Besides, the GI50 in the test on SW-620 colon was 3.65 µM; with UACC-257 melanoma, 4.03 µM; in the test on SF-295 CNS, 4.02 µM; with EKVX NSCLC, 4.5 µM. Also, the TGI in the test with CAKI-1 renal came out at 17.5 µM; with COLO 205 colon, 17.2 µM; in the test with UACC-62 melanoma it was 16.5 µM; in the test with SNB-19 CNS, 25 µM; with K-562 leukemia, 11.3 µM; in the test on HT29 colon it was 12.9 µM. The TGI worked out at 13.9 µM with SW-620 colon, 16.7 µM in the test on UACC-257 melanoma, 17.8 µM in the test with SF-295 CNS and 29.3 µM in the test with EKVX NSCLC.

On to `c1cc(C2N3CCCN2CC3)ccn1` (configuration not stated), for which the TGI with CAKI-1 renal, with COLO 205 colon, with UACC-62 melanoma, in the test on SNB-19 CNS, in the test on K-562 leukemia and with HT29 colon was over 100 µM each time. Moreover, the TGI in the test on SW-620 colon, in the test on UACC-257 melanoma, with SF-295 CNS and in the test with EKVX NSCLC was over 100 µM in each case.

`O=C(O)CCc1nc(-c2ccccc2)c(-c2ccccc2)o1`: the TGI with CAKI-1 renal, in the test on COLO 205 colon, in the test with UACC-62 melanoma, with SNB-19 CNS, with K-562 leukemia and in the test with HT29 colon was over 100 µM in each case. Besides, the TGI in the test with SW-620 colon, with UACC-257 melanoma, with SF-295 CNS and with EKVX NSCLC was over 100 µM in each case.

For the compound `Cc1ccc(C(=O)Nc2ccccc2C(=O)N/N=C(\c2ccccc2)c2ccccn2)cc1`, the GI50 in the test on CAKI-1 renal is 0.324 µM; in the test with COLO 205 colon, 0.334 µM; in the test with UACC-62 melanoma, 0.36 µM; in the test with SNB-19 CNS, 0.554 µM; in the test on K-562 leukemia, 0.855 µM; in the test with HT29 colon, 0.25 µM. Further, the GI50 in the test with SW-620 colon was 0.603 µM; with UACC-257 melanoma, 0.999 µM; in the test on SF-295 CNS, 0.377 µM; in the test on EKVX NSCLC, 0.207 µM. Further, the TGI was over 100 µM in the test with CAKI-1 renal; over 100 µM in the test on COLO 205 colon; 6.7 µM in the test with UACC-62 melanoma; over 100 µM with SNB-19 CNS; over 100 µM with K-562 leukemia; over 100 µM in the test with HT29 colon. The TGI with SW-620 colon, in the test with UACC-257 melanoma, in the test with SF-295 CNS and with EKVX NSCLC was over 100 µM in each case.

Turning to `O/N=C1/C(=C/c2ccc(Cl)cc2)CCCC1C(NO)c1ccc(Cl)cc1` (configuration not stated), the TGI was 53.5 µM with CAKI-1 renal; 42.3 µM with COLO 205 colon; over 100 µM with UACC-62 melanoma; 76.6 µM with SNB-19 CNS; 62.2 µM with K-562 leukemia; 36.6 µM in the test on HT29 colon. Moreover, the TGI with SW-620 colon is over 100 µM; in the test with UACC-257 melanoma, 31.6 µM; in the test on SF-295 CNS, 36.4 µM; in the test with EKVX NSCLC it was 74.8 µM.

`CCN1CCC(O)(c2ccc(Cl)c(Cl)c2)C(C(=O)c2ccc(Cl)c(Cl)c2)C1` (configuration not stated): the TGI in the test on CAKI-1 renal is 32.6 µM; in the test on COLO 205 colon, 31.7 µM; with UACC-62 melanoma it was 31.5 µM; with SNB-19 CNS it was 35.1 µM; with K-562 leukemia, 37.7 µM; in the test with HT29 colon, 32.2 µM. Besides, the TGI with SW-620 colon is 38.7 µM; in the test with UACC-257 melanoma it was 32 µM; in the test on SF-295 CNS it was 31.9 µM; in the test with EKVX NSCLC, 33.6 µM.
